From US10046001B2, “Compositions and methods for reducing intraocular pressure” (UNIVERSITY OF MIAMI, priority 2013, dated 2018) come the findings set out here.

The subject of one data set is DBA/2J mice. As to the kind of experiment: IOP lowering after topical application in DBA/2J mice. It is filed as in vivo, mouse. To be noted: DBA/2J mouse at 8 months, IOP ~35 mm of Hg, topical once daily up to 7 days. The procedure: The right eye was treated with vehicle alone and left eye treated with lipid. Control had both eyes treated with vehicle. A. In DBA/2J mice the indicated lipid in vehicle or control (vehicle only) were administered one daily at around 7.5 months of age in mice which were noted to have a IOP≥18 mm of Hg (20% increase from an average baseline of 15 mm of Hg was employed as treatment point). The average IOP recordings are shown for indicated lipids. B. A 10 picomole each of six PC (13:0/13:0; PE (18:0/18:0), Lyso-PS 18:0, PS 18:1, Sphinganine and C17S1P) were combined and applied as a topical dose once daily for up to 7 days on DBA/2J mouse eyes in 5% DMSO (vehicle). […] Transgenic myocillin mice [Tg-MYOC(Y437H)] subjected to a topical dose of indicated lipids as noted above (FIG. 5C). The IOP lowering compared to control was noted on day 4 and 6 as shown.
Intraocular pressure lowering in mouse models. The endogenous lipids lowered IOP in a DBA/2J mouse model of glaucoma (FIG. 5A). DBA/2J is the only known mouse animal where elevation of IOP occur spontaneously. Although this mouse also suffers from pigmentary dispersion, however, elevation of IOP appears not to correlate with […]. The lipids as indicated were applied as a topical dose (10 pmole in 5% DMSO as vehicle). The 5% DMSO only vehicle served as a control (FIG. 5A). […] A 10 picomole each of six PC (13:0/13:0; PE (18:0/18:0), Lyso-PS 18:0, PS 18:1, Sphinganine, and C17S1P) were combined and applied as a topical dose once daily for up to 7 days on DBA/2J mouse eyes in 5% DMSO (vehicle) (in other words, 10 picomoles of each PC was included). […] In addition to the DBA/2J model described here, these endogenous lipids lowered IOP in cochlin and connective tissue growth factor (CTGF) over-expression models. […] Thus the endogenous lipids assessed here lowered IOP in vastly different DBA/2J and MYOC(Y437H) mouse models as well as in cochlin and CTGF overexpression models covering a broad swath of four rodent glaucoma models that encompass induced as well as spontaneous IOP elevation.
Topical application of lipids and measurement of IOP: The lipids were topically applied as 1 μl drops with 10 pmole lipids. Pressure was measured with a tonolab (Colonial
Medical Supplies, N.H.) or with an assembled cannulation device, used in our laboratory. An initial assessment had utilized 10% DMSO as vehicle. However, all data reported here utilized 5% DMSO.

Data set [1] relates to normotensive cynomolgus monkeys. As to the kind of experiment: IOP and slit lamp examination in normotensive cynomolgus monkeys after topical lipid. It is filed as in vivo. Here is the method: Lipids were topically administered in 1 μl volume around ˜1 pm in the afternoon. The right eye was treated with vehicle alone, and the left eye was treated with lipid. The cynomolgus monkeys (n=4) were treated with […] lipid (except C17S1P which was 50 nM) for 5 days. Monkeys were subjected to slit lamp examination and IOP measurement prior to and after treatment. The IOP measured 3-6 hours post-treatment on the fifth day of treatment is depicted as solid bars. The hollow bars are control (vehicle only (5% DMSO)).
Experimental design: The IOP-reducing activity of six lipids was tested in the eyes of cynomolgus monkeys (n=4 animals for each lipid). Baseline slit lamp biomicroscopic examination (SLE) and IOP for each group of animals was measured prior to topical application of lipids. The SLE and IOP were then measured at 3-6 hours posttreatment. One eye of each monkey received topical application with the lipid suspended in vehicle (1% dimethylsulfoxide (DMSO)), and the contralateral eye was treated with vehicle only. All topical applications contained 10 picomole of lipid (except C17S1P, which was 50 nM). […] The IOP was measured using a minified Goldmann applanation tonometer.

As to `CCN[C@H]1C[C@H](C)S(=O)(=O)c2sc(S(N)(=O)=O)cc21` [Dorzolamide, reference compound], the “lowering of IOP after elevation, short term application (FIG. 5B)” value in the data set on DBA/2J mice is “same level of IOP reduction as Timolol”. With `CCCCCCCCCCCCCCCCCC(=O)OC[C@@H](O)COP(=O)(O)OC[C@H](N)C(=O)O` [PS18:0 Lyso-PS], in data set [1] (topical 10 picomole (C17S1P 50 nM), 5 days, IOP 3-6 hours post-treatment), the IOP reduction result is recorded as “reduced IOP significantly”. The “adverse side effects or toxicity” value in data set [1] (topical, slit lamp examination) was “without additional adverse side effects or toxicity”.
